Experimental data: US20090092631A1, “GLYCOSYLATED SPECIFICITY EXCHANGERS THAT INDUCE AN ANTIBODY DEPENDENT CELLULAR CYTOTOXICITY (ADCC) RESPONSE” (priority 2007, published 2009)
Ends that are not written are not given here.

How the values were obtained:
HIV-1 IIIB = assay: Neutralization assay (plaque-forming units/syncytia) in U87 cells expressing CD4 and co-receptor; type: cell-based
Description: Once it had been determined that the glycosylated specificity exchangers appreciably bound gp120 and human antibody, the antiviral activity of the glycosylated specificity exchangers was evaluated using a neutralization assay that is recognized in the art to reasonably predict the therapeutic efficacy of an HIV vaccine. (See Y. Shi et al., “A new cell line-based neutralization assay for primary HIV type 1 isolates,” AIDS Res Hum Retroviruses 18:957-967 (2002), herein expressly incorporated by reference in its entirety). By this approach, HIV infection of U87 cells that express CD4 and one of the major co-receptors (either CXCR4 or CCR5) were challenged with the glycosylated specificity exchangers and human serum during competition with the CD4 receptor. The infected cells form syncytia, that is, plaques, that were stained and enumerated by light microscopy. Neutralization was then determined by the ability of human serum and glycosylated specificity exchanger to reduce the number of plaque-forming units (PFU) relative to controls.
In brief, the U87 cells were seeded onto a 48 well plate at a concentration of 100,000 cell/well 1 day prior infection with HIV-1 IIIB. On the day of infection, glycosylated specificity exchangers (Seq. ID. Nos. 4-9), human serum and virus stock were diluted in culture medium and incubated in a separate 48 well plate, to a final dilution of 1:10/1:20 for the serum and an appropriate concentration of the virus, according to the titration. The glycosylated specificity exchangers were analyzed at different concentrations to determine the minimal amount required for antiviral activity. The glycosylated specificity exchanger-serum-virus mixture was kept at 37° C. for 1 hr. Then, two hundred microliters of each dilution was distributed into wells containing the U87/CD4 cells. The experiment was performed in quadruplicate in the same plate and in five separate plates.
Controls for the assay included glycosylated specificity exchanger without the coupled sugar, the glycosylated specificity exchanger (coupled with the sugar) and a 1:10/1:20 dilution of heat inactivated human serum, cells and medium only, and cells and medium and serum. […]

HIV IIIB virus [1] = assay: Syncytia inhibition (plaque) assay on U87 CD4+-CXCR4+ cells; type: cell-based, HIV-1; conditions: for neutralization values (ranking): non-inactivated human sera (FIGS. 12H and 12I); for neutralization (comparison among glycopeptides): plaque assay U87, single round TZMbl and H9 infectivity assays, HIV IIIB, inactivated human serum
Description: The CD4 glycopeptides were studied for inhibition of cell to cell interactions in a plaque assay system using U87 cells (FIG. 7), in a single round infectivity assay with TZMbl cells (FIG. 7) and in an infectivity assay with H9 cells, wherein multiple rounds of replication were allowed (FIG. 8). Infectivity was performed with the HIV IIIB virus and inactivated human serum from healthy individuals was used as the source of the anti-gal antibody.
Neutralization was tested based on the prevention of syncytia formation by HIV-1 infection of adherent U87 glioma cells expressing the CD4 receptor and the CXCR4 co-receptor, previously described by Shi Y, et al., (2002) A new cell line-based neutralization assay for primary HIV type 1 isolates. AIDS Res Hum Retroviruses 18:957-967, herein expressly incorporated by reference in its entirety.
Cells were seeded into 48 well plates (Costar, Corning USA) at a concentration of 10^5 cell/well one day prior to infection. On the day of infection, glycopeptides, pooled AB type human serum from healthy individuals (Cambrex, USA) and previously titrated HIV IIIB virus were diluted in culture medium and pre-incubated in a separate 48 well plate for 1 h at 37° C. The peptides were analyzed at different concentrations to evaluate the minimum dose required for antiviral activity. Two hundred microliters of each dilution were distributed into triplicate wells containing the U87 CD4^+-CXCR4^+ cells and incubated for 12 h after which medium was removed and 1 ml of D-MEM medium was added to the cells. The positive controls were infected cells in the presence or absence of human serum and negative controls consisted of uninfected cells in the presence or absence of human serum and an irrelevant glycosylated peptide. At day five the cells were fixated with methanol-acetone (1:1). The number of plaque-forming units was determined after haematoxylin staining and the index was extracted from the ratio between infected cells treated with the peptides and human serum and cells infected with the virus in the presence of human serum. Each peptide was tested at four different concentrations, in quadruplicates in the same plate and in five different plates, i.e. each peptide was run in twenty wells at each concentration.

HIV IIIB virus [2] = assay: Multiple round infectivity assay in H9 cells (RT activity, day 11); type: cell-based, HIV-1; conditions: 1 μg/ml glycopeptide, 5 or 10% human serum
Description: An infectivity assay was performed on H9 cells that were infected with HIV IIIB virus. All peptides were run at four different dilutions and each dilution was run in quadruplicates together with a 10% or 5% of pooled AB human serum from healthy individuals. (Cambrex, USA).
H9 cells were infected with 100 TCID50 of the HIV IIIB virus and incubated for 1.5 h at 37° C. after which they were centrifuged, the supernatant was discarded and the cells were re-suspended in RPMI medium for a final concentration of 200,000 cells/ml.
One 48 well plate was run per glycopeptide, containing the four dilutions of the glycopeptide and the four replicates of each one of them, plus a positive control of infected cells (with and without human serum) and a negative control of non-infected H9 cells. Each well contained 500 μl of the infected cells +500 μl of the diluted peptide and the chosen dilution of the human serum.
Plates were incubated at 37° C.+5% CO2 until day 7 when 500 μl of supernatant were collected from each well and stored at −20 degrees until further analysis. An additional 500 μl of fresh RPMI medium with the appropriate dilution of the peptide plus the human serum were added to the wells and incubated at 37 degrees until day 11 when the supernatant was measured for Reverse Transcriptase (RT) activity (Cavidi, Sweden) according to the manufacturer's protocol.

[3] = CD4 peptide Alone (without coupled sugar), 0.1 ug/ml, 0.3 equals 30% inhibition
[4] = CD4 peptide Alone (without coupled sugar), 1 ug/ml, 0.3 equals 30% inhibition
[5] = CD4 peptide Alone (without coupled sugar), 10 ug/ml, 0.3 equals 30% inhibition of HIV replication (syncytia formation)
[6] = Glycosylated Sp. Exchanger & 1:10 dilution human serum, 0.1 ug/ml, 0.3 equals 30% inhibition
[7] = Glycosylated Sp. Exchanger & 1:10 dilution human serum, 1 ug/ml, 0.3 equals 30% inhibition
[8] = Glycosylated Sp. Exchanger & 1:10 dilution human serum, 10 ug/ml, 0.3 equals 30% inhibition
[9] = Glycosylated Sp. Exchanger & 1:20 dilution human serum, 0.1 ug/ml, 0.3 equals 30% inhibition
[10] = Glycosylated Sp. Exchanger & 1:20 dilution human serum, 1 ug/ml, 0.3 equals 30% inhibition
[11] = Glycosylated Sp. Exchanger & 1:20 dilution human serum, 10 ug/ml, 0.3 equals 30% inhibition
[12] = Glycosylated Sp. Exchanger, 0.1 ug/ml, 0.3 equals 30% inhibition
[13] = Glycosylated Sp. Exchanger, 1 ug/ml, 0.3 equals 30% inhibition
[14] = Glycosylated Sp. Exchanger, 10 ug/ml, 0.3 equals 30% inhibition

Substance	neutralization of the virus (HIV-1 IIIB; [3])	neutralization of the virus (HIV-1 IIIB; [4])	neutralization of the virus (HIV-1 IIIB; [5])	neutralization of the virus (HIV-1 IIIB; [6])	neutralization of the virus (HIV-1 IIIB; [7])	neutralization of the virus (HIV-1 IIIB; [8])	neutralization of the virus (HIV-1 IIIB; [9])	neutralization of the virus (HIV-1 IIIB; [10])	neutralization of the virus (HIV-1 IIIB; [11])	neutralization of the virus (HIV-1 IIIB; [12])	neutralization of the virus (HIV-1 IIIB; [13])	neutralization of the virus (HIV-1 IIIB; [14])	neutralization of the virus (HIV-1 IIIB; Glycosylated Sp. Exchanger & 1:10 dilution human serum, 100 ug/ml, 0.3 equals 30% inhibition)	neutralization of the virus (HIV-1 IIIB; Glycosylated Sp. Exchanger & 1:20 dilution human serum, 100 ug/ml, 0.3 equals 30% inhibition)	neutralization of the virus (HIV-1 IIIB; Glycosylated Sp. Exchanger, 100 ug/ml, 0.3 equals 30% inhibition)	neutralization values (ranking) (HIV IIIB virus [1])	neutralization (comparison among glycopeptides) (HIV IIIB virus [1])	neutralization (HIV IIIB virus [2])
6 (KILGNQGSFLTKGPS; Homo sapien) [compound 6]	neg (Neg = negative <0.30)	neg (Neg = negative <0.30)	neg (Neg = negative <0.30)	0.50	0.42	0.60	neg (Neg = negative <0.30)	neg (Neg = negative <0.30)	neg (Neg = negative <0.30)	neg (Neg = negative <0.30)	–	–	–	–	–	–	–	–
7 (QGSFLTKGPSKLNDR; Homo sapien) [compound 7]	neg (Neg = negative <0.30)	neg (Neg = negative <0.30)	neg (Neg = negative <0.30)	0.439	0.461	0.454	neg (Neg = negative <0.30)	neg (Neg = negative <0.30)	neg (Neg = negative <0.30)	neg (Neg = negative <0.30)	neg (Neg = negative <0.30)	neg (Neg = negative <0.30)	–	–	–	–	–	–
8 (TKGPSKLNDRADSRR; Homo sapien) [compound 8]	–	–	–	0.778	0.821	0.83	0.701	0.667	0.642	–	0.548	0.552	–	–	–	–	–	–
9 (KLNDRADSRRSLWDQ; Homo sapien) [compound 9]	–	–	–	0.76	0.75	0.78	0.71	0.75	0.74	neg (Neg = negative <0.30)	neg (Neg = negative <0.30)	neg (Neg = negative <0.30)	0.75	0.734	neg (Neg = negative <0.30)	–	–	–
KILGNQGSFLTKGPS ({Gal‑α1‑3Gal‑β glyco‑aspartic acid}-KILGNQGSFLTKGPS) [Seq. Id. No. 6, CD4 receptor peptide with Gal-α1-3Gal-β glyco-aspartic acid linked to its N-terminal end]	–	–	–	–	–	–	–	–	–	–	–	–	–	–	–	Highest neutralization values	greater neutralization	90%
QGSFLTKGPSKLNDR ({Gal‑α1‑3Gal‑β glyco‑aspartic acid}-QGSFLTKGPSKLNDR) [Seq. Id. No. 7, CD4 receptor peptide with Gal-α1-3Gal-β glyco-aspartic acid linked to its N-terminal end]	neg (Neg = negative <0.30)	neg (Neg = negative <0.30)	neg (Neg = negative <0.30)	0.48	0.48	0.55	0.47	0.47	0.48	neg (Neg = negative <0.30)	neg (Neg = negative <0.30)	neg (Neg = negative <0.30)	–	–	–	Highest neutralization values	greater neutralization	90%
TKGPSKLNDRADSRR ({Gal‑α1‑3Gal‑β glyco‑aspartic acid}-TKGPSKLNDRADSRR) [Seq. Id. No. 8, CD4 receptor peptide with Gal-α1-3Gal-β glyco-aspartic acid linked to its N-terminal end]	neg (Neg = negative <0.30)	neg (Neg = negative <0.30)	neg (Neg = negative <0.30)	neg (Neg = negative <0.30)	0.39	0.49	neg (Neg = negative <0.30)	0.32	0.429	neg (Neg = negative <0.30)	neg (Neg = negative <0.30)	neg (Neg = negative <0.30)	–	–	–	Highest neutralization values	greater neutralization	90%
